From publication PMC9296983, “Synthesis and HDAC inhibitory activity of pyrimidine-based hydroxamic acids” (Beilstein Journal of Organic Chemistry, 2022) come the findings set out here.

The target in one data set is T1, HDAC8 (Homo sapiens, UniProt Q9BY41).
T1 construct: made in house
T1 sequence (Q9BY41 1-377): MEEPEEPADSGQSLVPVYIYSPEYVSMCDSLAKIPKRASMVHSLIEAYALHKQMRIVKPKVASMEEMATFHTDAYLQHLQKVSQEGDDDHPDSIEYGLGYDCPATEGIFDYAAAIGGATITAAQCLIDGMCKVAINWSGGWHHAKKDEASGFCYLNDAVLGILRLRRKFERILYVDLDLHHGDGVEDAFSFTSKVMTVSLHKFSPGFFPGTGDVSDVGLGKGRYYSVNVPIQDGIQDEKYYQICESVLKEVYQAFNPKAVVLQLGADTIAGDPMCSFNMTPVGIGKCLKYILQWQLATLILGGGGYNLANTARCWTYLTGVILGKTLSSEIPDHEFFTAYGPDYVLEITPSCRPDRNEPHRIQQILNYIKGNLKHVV
Nature of the data set: HDAC enzyme activity assay (fluorogenic, Boc-Lys(trifluoroacetyl)-AMC substrate), HDAC8. The data set is classed as biochemical. To be noted: recombinant HDAC8; BOC-LYS-(TFA)-AMC as substrate, 100 mM TRIS, 300 mM KCl, pH 8.0 buffer, 30 °C. The protocol:
(§1) Compounds 12–18 and 25–31 were tested as inhibitors of HDAC4 and HDAC8 isoforms according to the procedures described previously. […]. […]
(§2) HDAC enzyme activity assay
Recombinant HDAC4 and 8 were produced as described in [3]. […]
HDAC in a black 96-well microtiter half -area plate (Greiner) for 60 min at 30 °C. Subsequentl y the reaction was started by the addition of 20 μM Boc -Lys(trifluoroacetyl) -AMC (Bachem) as a substrate.
(§3) After incubation for 60 min at 30 °C, the reaction was stopped by the addition of 1.7 μM SATFMK.
(§4) The deacetylated substrate was transformed into a flu orescent product by the addition of 0.4 mg/m L trypsin (Applichem). The release of AMC was followed in a microplate reader (PheraStar Plus, BMG Labtech) at 450 nm (λ Ex = 350 nm) and correlated to enzyme activity. Dose–response curves were produced with GraphPad Prism and fitted to a four parameters logistic function to obtain IC50 values […]
(§5) in which EA is the enzyme activity at a given inhibitor concentration x; Emax and E0 are the enzyme activities determined at zero and complete inhibition, respectively; IC50 represents the inhibitor concentration at which half the enzyme molecules are inhibited; h is the slope of the curve. […]
(§6) (1 picture or pasted object on this page, not shown here)

For the next data set, the target named is T2, HDAC4 (Homo sapiens, UniProt P56524).
T2 construct: made in house
T2 sequence (P56524 whole entry, species assumed): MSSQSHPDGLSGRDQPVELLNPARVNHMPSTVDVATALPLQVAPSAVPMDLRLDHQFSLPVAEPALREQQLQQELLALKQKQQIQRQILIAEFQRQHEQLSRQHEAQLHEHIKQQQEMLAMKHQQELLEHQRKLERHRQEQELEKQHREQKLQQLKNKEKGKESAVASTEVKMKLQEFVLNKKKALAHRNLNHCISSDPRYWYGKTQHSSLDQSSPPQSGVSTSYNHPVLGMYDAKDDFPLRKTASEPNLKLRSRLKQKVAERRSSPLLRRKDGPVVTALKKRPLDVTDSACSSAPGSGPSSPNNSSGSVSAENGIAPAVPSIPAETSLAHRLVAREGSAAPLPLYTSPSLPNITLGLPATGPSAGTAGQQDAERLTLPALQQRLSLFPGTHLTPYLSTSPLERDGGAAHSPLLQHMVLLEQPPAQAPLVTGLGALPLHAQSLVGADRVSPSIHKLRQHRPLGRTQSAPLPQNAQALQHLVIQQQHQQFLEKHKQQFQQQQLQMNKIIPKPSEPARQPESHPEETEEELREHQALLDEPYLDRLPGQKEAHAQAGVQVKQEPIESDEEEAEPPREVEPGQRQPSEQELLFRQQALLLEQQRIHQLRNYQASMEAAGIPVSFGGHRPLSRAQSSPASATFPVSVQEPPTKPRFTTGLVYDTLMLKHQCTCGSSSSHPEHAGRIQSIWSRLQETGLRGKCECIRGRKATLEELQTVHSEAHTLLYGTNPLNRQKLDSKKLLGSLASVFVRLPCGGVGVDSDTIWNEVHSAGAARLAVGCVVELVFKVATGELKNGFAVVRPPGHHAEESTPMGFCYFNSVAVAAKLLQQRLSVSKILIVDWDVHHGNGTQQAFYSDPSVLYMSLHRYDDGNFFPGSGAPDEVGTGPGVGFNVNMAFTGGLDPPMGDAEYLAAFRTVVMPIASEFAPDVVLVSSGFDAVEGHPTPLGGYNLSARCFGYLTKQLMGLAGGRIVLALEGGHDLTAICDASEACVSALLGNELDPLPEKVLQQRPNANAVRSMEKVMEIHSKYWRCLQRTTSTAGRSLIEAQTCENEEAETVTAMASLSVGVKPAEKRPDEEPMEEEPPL
In words: HDAC enzyme activity assay (fluorogenic, Boc-Lys(trifluoroacetyl)-AMC substrate), HDAC4. The data set is classed as biochemical. To be noted: recombinant HDAC4; BOC-LYS-(TFA)-AMC as substrate, 100 mM TRIS, 300 mM KCl, pH 8.0 buffer, 30 °C. The procedure: as §1, §2
Recombinant HDAC4 and 8 were produced as described in [3]. Serial dilutions of the inhibitor in the assay buffer (25 mM Tris -HCl, pH 8.0, 75 mM KCl, 0.001 % Pluronic F-127) were incubated with HDAC in a black 96-well microtiter half -area plate (Greiner) for 60 min at 30 °C. Subsequentl y the reaction was started by the addition of 20 μM Boc -Lys(trifluoroacetyl) -AMC (Bachem) as a substrate.
as §3, §4, §5, §6

Where only a bound is given, the exact number is not on record here.

As a reminder, the melting point is the temperature of the solid-liquid transition. As usually defined, the IC50 is the concentration that inhibits the measured activity by half. As for `CCSc1nc(C)cc(OCC(=O)NO)n1` [compound 13], the melting point was in the range of 175 to 176 °C. Moreover, on HDAC8, the IC50 was found to be 13 µM.
In the case of `Cc1cc(OCC(=O)NO)nc(O)n1` [compound 18], the melting point was 190 to 191 °C (dec.). Further, the IC50 at HDAC8 worked out at 60 µM.
`Cc1cc(OCC(=O)NO)nc(N(C)C)n1` [compound 16] showed a melting point of 192 to 194 °C. In addition, on HDAC8, the half-maximal inhibitory concentration (IC50) came to 35 µM.
Taken in the same sequence, the figures for `Cc1cc(OCC(=O)NO)nc(NCc2ccccc2)n1` [compound 15] were 168 to 170 °C and 14 µM.
Compound `CSc1nc(C)cc(OCCCC(=O)NO)n1` [compound 25] showed a melting point of 150 to 151 °C. Also, at HDAC4, the half-inhibitory concentration (IC50) was more than 50 µM. The IC50 at HDAC8 is 5.65 µM.
Taken in the same sequence, the figures for `CCCc1c(C)nc(SC)n(CC(=O)NO)c1=O` [compound 30, N-Hydroxy-[6-methyl-2-(methylthio) -4-oxo-5-propylpyrimidin-3(4H)-yl]acetamide] were 185 to 187 °C, more than 35 µM and more than 35 µM.
Regarding `Cc1cc(OCC(=O)NO)nc(N2CCCC2)n1` [compound 17], the melting point is 178 to 180 °C. At HDAC8, the IC50 is 13 µM.
Regarding `CCCc1c(C)nc(SC)nc1OCCCC(=O)NO` [compound 28], the melting point was 125 to 127 °C. In addition, the IC50 at HDAC4 was more than 35 µM. Also, on HDAC8, the IC50 is 2.4 µM.
Taken in the same sequence, the figures for `CSc1nc(C)cc(OCC(=O)NO)n1` [compound 12] were 182 to 184 °C, 38 µM and 28 µM.
As for `CCCc1c(C)nc(SC)n(CCCC(=O)NO)c1=O` [compound 31, N-Hydroxy-4-[6-methyl-2-(methylthio) -4-oxo-5-propylpyrimidin-3(4H)-yl]butanamide], the melting point was in the range of 133 to 135 °C. Further, the half-maximal inhibitory concentration (IC50) on HDAC4 was more than 35 µM. Besides, the concentration for half-maximal inhibition (IC50) at HDAC8 was more than 35 µM.
Consider `CCCc1c(C)nc(SC)nc1OCC(=O)NO` [compound 27], for which the melting point was in the range of 144 to 146 °C. Further, at HDAC4, the half-maximal inhibitory concentration (IC50) was determined as 38 µM. Moreover, the IC50 on HDAC8 turned out to be 1.4 µM.
Regarding `CSc1nc(C)cc(OCCCCCC(=O)NO)n1` [compound 26], the melting point is 112 to 113 °C. Besides, the IC50 at HDAC4 was more than 50 µM. Moreover, the half-maximal inhibitory concentration (IC50) at HDAC8 was determined as 2.05 µM.
With `CCCc1c(C)nc(SC)nc1OCCCCCC(=O)NO` [compound 29, N-hydroxy-6-[6-methyl-2-(methylthio)-5-propylpyrimidin-4-yloxy]hexanamide], the IC50 at HDAC4 was 16.6 µM; at HDAC8 it was 1.2 µM.
Consider `C=CCNc1nc(C)cc(OCC(=O)NO)n1` [compound 14], for which the melting point lay in the range of 177 to 179 °C. Also, the IC50 at HDAC8 amounted to 15 µM.
